Data reported in patent US20020026053A1, “Novel 3-(substituted) -2- indolinones compounds and use thereof as inhibitors of protein kinase activity” (priority 1997, published 2002).

Target: T1, Met receptor (EGFR/Met chimeric cells, EMR) (Homo sapiens, UniProt P08581)
T1 construct: expressed in transfected cells; the other entry of the earlier key: EGFR (P00533, Epidermal growth factor receptor)
Assay: Met Autophosphorylation Assay
Assay type: biochemical
Summary of the method: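 Transiently transfected EGFR/Met chimeric (EMR) cells were lysed in HNTG with 1 mM PMSF. Met was captured on plates coated with goat anti-rabbit IgG, then rabbit anti-Met (C-28), using 90 μg lysate/100 μl for 60 min at room temperature. Phosphotyrosine was read by ELISA.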

T1 sequence (P08581 with tags, fused parts or gaps): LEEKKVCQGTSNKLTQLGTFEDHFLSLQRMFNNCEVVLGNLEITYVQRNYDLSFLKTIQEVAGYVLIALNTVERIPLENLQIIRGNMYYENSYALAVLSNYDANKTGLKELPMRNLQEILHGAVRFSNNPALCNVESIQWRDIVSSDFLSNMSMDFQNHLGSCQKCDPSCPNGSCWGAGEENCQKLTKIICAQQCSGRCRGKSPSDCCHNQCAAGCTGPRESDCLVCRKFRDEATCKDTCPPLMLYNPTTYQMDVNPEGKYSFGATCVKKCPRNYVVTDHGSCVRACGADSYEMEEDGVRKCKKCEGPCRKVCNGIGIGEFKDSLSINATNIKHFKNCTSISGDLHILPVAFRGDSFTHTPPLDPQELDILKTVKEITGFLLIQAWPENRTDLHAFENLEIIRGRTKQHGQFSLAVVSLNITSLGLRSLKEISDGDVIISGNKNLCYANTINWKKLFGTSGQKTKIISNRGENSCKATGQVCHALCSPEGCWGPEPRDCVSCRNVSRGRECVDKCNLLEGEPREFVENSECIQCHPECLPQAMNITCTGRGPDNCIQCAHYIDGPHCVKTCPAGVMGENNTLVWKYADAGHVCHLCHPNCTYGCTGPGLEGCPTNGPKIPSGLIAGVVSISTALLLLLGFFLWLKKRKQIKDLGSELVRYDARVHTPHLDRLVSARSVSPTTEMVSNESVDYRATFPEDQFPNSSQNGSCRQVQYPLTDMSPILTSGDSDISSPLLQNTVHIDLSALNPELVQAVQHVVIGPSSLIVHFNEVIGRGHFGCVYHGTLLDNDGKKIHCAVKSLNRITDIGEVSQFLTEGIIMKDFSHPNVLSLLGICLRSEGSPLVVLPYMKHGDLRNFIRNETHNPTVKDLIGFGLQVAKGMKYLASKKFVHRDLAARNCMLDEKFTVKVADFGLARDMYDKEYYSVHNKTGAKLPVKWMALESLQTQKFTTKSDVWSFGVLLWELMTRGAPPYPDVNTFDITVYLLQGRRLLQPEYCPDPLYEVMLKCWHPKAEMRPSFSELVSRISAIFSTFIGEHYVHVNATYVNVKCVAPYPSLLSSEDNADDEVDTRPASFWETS

SMILES | Met Kinase % Inhibition (P.130) [%]
O=C1Nc2ccc(S(=O)(=O)N3CCOCC3)cc2C1=Cc1ccccc1C(F)(F)F [10736/F03] | 23.9
Cc1cccc(C=C2C(=O)Nc3ccc(S(=O)(=O)N4CCOCC4)cc32)c1 [10736/F04] | 45.2
Cc1ccc(C=C2C(=O)Nc3ccc(S(=O)(=O)N4CCOCC4)cc32)cc1 [10736/F05] | 19.8
O=C1Nc2ccc(S(=O)(=O)N3CCOCC3)cc2C1=Cc1cccc(Cl)c1 [10736/F06] | 49.0
O=C1Nc2ccc(S(=O)(=O)N3CCOCC3)cc2C1=Cc1cccc(F)c1 [10736/F07] | 10.7
O=C1Nc2ccc(S(=O)(=O)N3CCOCC3)cc2C1=Cc1ccccc1F [10736/F08] | −0.2
CCc1ccc(C=C2C(=O)Nc3ccc(S(=O)(=O)N4CCOCC4)cc32)cc1 [10736/F09] | 40.2
